Measured values taken from patent publication US8039621B2, “Process for preparing anhydrous Aripirazole type I” (Cambrex Charles City, Inc., priority 2006, dated 2011).

Test: Hygroscopicity of dried anhydrous aripiprazole Type I crystals
Type: physicochemical
Conditions: vacuum of 22 inches Hg
Protocol: […] A dish of phosphorous pentoxide (dessicant) also was placed in the oven. Periodically, approximately a one (1) gram sample of the aripiprazole wet cake was removed from the oven and analyzed for moisture content by the volumetric Karl Fischer titration method and also for its hygroscopicity. At the end of the 40 hour period, the moisture content of the final sample was analyzed using the coulometric Karl Fischer titration method and the hygroscopicity of the sample also was determined.
Another portion of the aripiprazole wet cake (20 g), prepared in accordance with the above-described procedure, was placed in a drying oven, the oven maintained at a temperature between 70 to 80° C., and under a vacuum of 22 inches Hg for a period of 40 hours. A dish of phosphorous pentoxide (dessicant) also was placed in the oven to facilitate drying. Periodically, approximately a one (1) gram sample of the aripiprazole wet cake was removed from the oven and analyzed for moisture content by the volumetric Karl Fischer titration method and also for its hygroscopicity. At the end of the 40 hours, the moisture content of the final sample was analyzed using the coulometric Karl Fischer titration method and the hygroscopicity of the sample also was determined.

[1] = final sample after 40 Hours in 60 to 65° C. Oven
[2] = final sample after 40 Hours in 70 to 80° C. Oven

Row | Structure (SMILES) | Hygroscopicity (%) [1] | Hygroscopicity (%) [2]
1 | O=C1CCc2ccc(OCCCCN3CCN(c4cccc(Cl)c4Cl)CC3)cc2N1 [Batch 1, 7-[4-[4-(2,3-dichlorophenyl)-1-piperazinyl]butoxy]-3,4-dihydro-2-(1H)-quinolinone] | 3.2% | 0.8%
2 | O=C1CCc2ccc(OCCCCN3CCN(c4cccc(Cl)c4Cl)CC3)cc2N1 [Batch 2, 7-[4-[4-(2,3-dichlorophenyl)-1-piperazinyl]butoxy]-3,4-dihydro-2-(1H)-quinolinone] | 1.2% | 0.7%
3 | O=C1CCc2ccc(OCCCCN3CCN(c4cccc(Cl)c4Cl)CC3)cc2N1 [Batch 3, 7-[4-[4-(2,3-dichlorophenyl)-1-piperazinyl]butoxy]-3,4-dihydro-2-(1H)-quinolinone] | 1.8% | 0.4%
